Consider two compounds from publication PMC9266460, “KSK-74: Dual Histamine H3 and Sigma-2 Receptor Ligand with Anti-Obesity Potential” (International Journal of Molecular Sciences, 2022).

Test [1] relates to peritoneal adipose tissue. The test can be described thus: Leptin, resistin, IL-6 and MCP-1 levels in adipose tissue (ELISA). Type of test: in vivo, female Wistar rats. The settings on record: for leptin levels in adipose tissue: vs palatable diet + vehicle unless worded otherwise. The procedure: The frozen peritoneal adipose tissue was weighed, and homogenates were prepared by homogenizing 1 g of tissue in 4 mL of 0.1 M phosphate buffer, pH 7.4, using the IKA-ULTRA-TURRAX T8 homogenizer. The adipose tissue homogenates were then used for biochemical assays.
To determine the levels of leptin, resistin, IL-6, and MCP-1 in adipose tissue, the standard ELISA Kit (Cat. No E0561Ra, Cat. No E0211Ra, Cat. No E0135Ra, Cat. No E0193Ra, Bioassay Technology Laboratory, Shanghai, China) was used. To determine the levels of protein, a standard spectrophotometric test (Cat. No 1-008-B210, Biomaxima S.A. Lublin, Poland) was used.

Another test addresses T1, H3R (Homo sapiens, UniProt Q9Y5N1).
T1 construct: the Aequoscreen line co-expresses apoaequorin
As to the kind of experiment: Intrinsic activity at H3R, range over both methods (LANCE Ultra cAMP and Aequoscreen). Type of test: cell-based. The settings on record: read-out: IC50 at H3R, range depending on the assay method. The procedure: The Aequoscreen technology uses recombinant cell lines with stable co-expression of apoaequorin and a GPCR as a system to detect activation of the receptor, following the addition of an agonist, via the measurement of light emission. For the measurement, cells (frozen, ready to use) were thawed and resuspended in 10 mL of assay buffer containing 5 μM of coelenterazine h. The cell suspension was then placed in a 10 mL Falcon tube, fixed on a rotating wheel, and incubated overnight at RT° in the dark. Cells were diluted with assay buffer at 5000 cells/20 µL. Agonistic ligands 2 × (50 μL/well), diluted in assay buffer, were prepared in 1/2 area white polystyrene plates, and 50 μL of cell suspension was dispersed on the ligands using the injector. The light emission was recorded for 20 s. Cells were incubated with antagonist for 15 min at RT°. Then, 50 µL of agonist (final concentration equal to 3 × EC80) was injected into the mixture of cells and antagonist and light emission was recorded for 20 s. The LANCE Ultra cAMP assay as a homogeneous time-resolved fluorescence resonance energy transfer (TR-FRET) immunoassay is designed to measure cAMP produced upon the modulation of adenylyl cyclase activity by GPCRs. […] For the measurement, cells (frozen, ready to use) were thawed and resuspended in 4 mL of HBSS 1×. […]

In a further test the target is sigma-2 receptor. Set-up: method as in PMID 34908391. The settings on record: Figure 1; read-out: σ2R Ki; cited from earlier work.
In test [2] the test system is rats fed a palatable diet. The test can be described thus: Plasma triglyceride and corticosterone levels in the model of excessive eating. It counts as in vivo, female Wistar rats. The settings on record: KSK 10 mg/kg, phentermine 7 mg/kg. As to the method: Blood was collected from the left carotid artery and then centrifuged at 600× g (15 min, 4 °C) to obtain plasma.
To determine plasma triglyceride levels, standard enzymatic and spectrophotometric tests (Cat. No 1-053-A150, Biomaxima S.A., Lublin, Poland) were used. The ELISA Kit (Item No. 501320, Cayman Chemical, Ann Arbor, MI, USA) was used to determine corticosterone levels in plasma.

The target in a further test is sigma-1 receptor. Set-up: method as in PMID 34908391. The settings on record: Figure 1; read-out: σ1R Ki; cited from earlier work.
A further test addresses H3 histamine receptor (Homo sapiens, UniProt Q9Y5N1). As to the kind of experiment: Intrinsic activity at H3R, Aequoscreen assay. It counts as cell-based. The procedure:
Intrinsic activity studies were performed using two methods, Aequoscreen and LANCE Ultra cAMP assays, according to the manufacturer of the ready-to-use cells with stable expressions of the H3 histamine receptor (Perkin Elmer).
The Aequoscreen technology uses recombinant cell lines with stable co-expression of apoaequorin and a GPCR as a system to detect activation of the receptor, following the addition of an agonist, via the measurement of light emission. For the measurement, cells (frozen, ready to use) were thawed and resuspended in 10 mL of assay buffer containing 5 μM of coelenterazine h. The cell suspension was then placed in a 10 mL Falcon tube, fixed on a rotating wheel, and incubated overnight at RT° in the dark. Cells were diluted with assay buffer at 5000 cells/20 µL. Agonistic ligands 2 × (50 μL/well), diluted in assay buffer, were prepared in 1/2 area white polystyrene plates, and 50 μL of cell suspension was dispersed on the ligands using the injector. The light emission was recorded for 20 s. Cells were incubated with antagonist for 15 min at RT°. Then, 50 µL of agonist (final concentration equal to 3 × EC80) was injected into the mixture of cells and antagonist and light emission was recorded for 20 s.

The mark [3] stands for this setting: KSK 10 mg/kg i.p., phentermine 7 mg/kg.

By IC50 is commonly meant the concentration needed to halve the response being measured. Usually Ki stands for a measure of affinity in units of concentration, obtained from inhibition or displacement.

Each structure is given as a SMILES string.

Chain of H3 histamine receptor (Q9Y5N1 whole entry): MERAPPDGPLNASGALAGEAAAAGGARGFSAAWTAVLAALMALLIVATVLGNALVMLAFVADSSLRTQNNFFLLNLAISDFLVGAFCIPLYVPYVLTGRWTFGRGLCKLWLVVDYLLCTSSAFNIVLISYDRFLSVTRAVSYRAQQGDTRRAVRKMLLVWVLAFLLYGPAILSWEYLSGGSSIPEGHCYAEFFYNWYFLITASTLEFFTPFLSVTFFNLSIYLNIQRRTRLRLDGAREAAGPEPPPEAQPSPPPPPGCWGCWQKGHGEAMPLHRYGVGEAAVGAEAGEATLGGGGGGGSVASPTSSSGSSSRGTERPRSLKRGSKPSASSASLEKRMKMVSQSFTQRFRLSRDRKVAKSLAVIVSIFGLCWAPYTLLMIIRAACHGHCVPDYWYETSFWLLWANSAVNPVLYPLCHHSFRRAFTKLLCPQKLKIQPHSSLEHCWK
T1 sequence (Q9Y5N1 whole entry): as above

In the case of `CCC(=O)c1ccc(OCCCCCCN2CCN(c3ccncc3)CC2)cc1` [KSK-60], the “leptin levels in adipose tissue” value in test [1] (setting [3]) is given as “maintained leptin levels at the same level as rats in the control group fed standard feed”. Also, the results for the IC50 on H3R and on H3 histamine receptor were 0.0008 to 0.0015 µM and 0.00149 ± 0.0002 µM, respectively. Also, the Ki was 0.11 µM on sigma-2 receptor and 0.248 µM at sigma-1 receptor. In addition, in test [2], the “plasma triglyceride levels vs palatable diet + vehicle” value was “No differences in plasma triglyceride levels”.
With `CCC(=O)c1ccc(OCCCCCCCCN2CCN(c3ccncc3)CC2)cc1` [KSK-74], the “IL-6 levels in adipose tissue vs palatable diet + vehicle” value in test [1] (10 mg/kg) is “reduced”. The “MCP-1 level in adipose tissue vs palatable diet + vehicle” value in test [1] (10 mg/kg b.w.) is given as “decreased the level of MCP-1”. In addition, in test [1] (setting [3]), the “resistin levels in adipose tissue vs palatable diet + vehicle” value is “reduced levels”. Moreover, in test [1] (setting [3]), the “leptin levels in adipose tissue” value is on record as “reduced levels”. In addition, the figures for the half-maximal inhibitory concentration (IC50) on H3R and against H3 histamine receptor were 0.023 to 0.032 µM and 0.0319 ± 0.0005 µM, respectively. Besides, the Ki at sigma-2 receptor is 0.0659 µM; on sigma-1 receptor, 0.274 µM. In addition, the “plasma triglyceride levels vs palatable diet + vehicle” value in test [2] was “lower plasma triglyceride levels”.
